From patent publication US10954269B2, “Anti-inflammatory tripeptides” (Dr. August Wolff Gmbh & Co. KG Arzneimittel, priority 2013, dated 2021)

How the values were obtained:
primary human T-cells = assay: Cytokine secretion on protein level in activated primary human T-cells (13-plex FACS / Luminex, supernatant); type: cell-based; details: 10^−9M
Protocol: (§1) Primary T-cells were isolated from peripheral blood from healthy volunteers and from secondary lymphatic organs from naïve C57BL/6 mice, respectively. The cells were stimulated with phorbol-12-myristate-13-acetate (PMA)/Ionomycin and interferon-gamma (IFN-γ), respectively, for 48 h to activate the cells. The activated cells release pro-inflammatory cytokines. In parallel a human (HaCaT) keratinocyte cell line was activated with PMA/Ionomycin and IFN-γ, respectively, too. […] At the same time release of anti-inflammatory IL-10 was inhibited. Two days after addition of PMA/Ionomycin and IFN-γ, respectively, the induction of IL-1 secretion was determined in the supernatant for proving that the cells are activated. […] The anti-inflammatory properties of the tripeptides were determined 48 h and 72 h following stimulation. A 13-plex-system based FACS analysis was used for showing the reduced secretion of pro-inflammatory cytokines in the supernatant. Data for IL-1, IL-2, IL-6, IL-12p70 IL-17, IFN-γ and TNF-α are considered to be most relevant. Thus, analysis of the anti-inflammatory properties of the tripeptides is preferably based on the results obtained for these analytes. […] Using this method the gene expression of pro-inflammatory markers like IL-6, IL-17, IFN-γ and TNF-α was determined.
(§2) In a third experiment murine and human T cells and HaCaT cells were stimulated with PMA/Ionomycin and treated with Examples 14, 15, 16 and 17 at 10^−7 M, 10^−9 M and 10^−11 M. Cytokine concentrations (IFN-γ, IL-17 and IL-10 for T cells and IFN-γ for HaCat) were assessed in the supernatants using the Luminex technology. Expression of genes coding for Il-1β, IL-6 and TNF-α was determined. […] Moreover, concentrations of pro-inflammatory cytokines IFN-γ and IL-17 was reduced in the supernatants whereas the concentration of anti-inflammatory cytokine IL-10 was increased. […]
(§3) For the biological assay two human cell lines of different origin were chosen to allow for translation of the results obtained. A HaCaT cell is a cell type belonging to an immortal human keratinocyte line used in scientific research. Its use in research allows for the characterization of human keratinocyte using a model that is reproducible and representing a human epithelial cell line. In contrast human T-lymphocytes (T-cells) are a type of lymphocyte (itself a type of white blood cell) that play a central role in cell-mediated inflammation/immunity.

[1] = test system: human keratinocyte cell line (HaCaT); assay: Cytokine secretion on protein level in activated human keratinocyte cell line HaCaT (13-plex FACS / Luminex, supernatant); type: cell-based; details: 10^−9M
Protocol: as §1, §2, §3

[2] = primary human T-cells stimulated with IFN-γ
[3] = primary human T-cells stimulated with PBS
[4] = primary human T-cells stimulated with PMA/Ionomycin
[5] = HaCaT stimulated with IFN-γ, excluded from the final assessment

Substance: H-(L)-Lys-(D)-Pro-N^α-methyl-(L)-Thr-OH [Example 2]
- IL-1 cytokine concentration (primary human T-cells; [2]): 314.88 pg/mL
- IL-2 cytokine concentration (primary human T-cells; [2]): 740.3 pg/mL
- IL-4 cytokine concentration (primary human T-cells; [2]): 116.26 pg/mL
- IL-5 cytokine concentration (primary human T-cells; [2]): 177.72 pg/mL
- IL-6 cytokine concentration (primary human T-cells; [2]): 97.68 pg/mL
- IL-9 cytokine concentration (primary human T-cells; [2]): 106.37 pg/mL
- IL-10 cytokine concentration (primary human T-cells; [2]): 146.79 pg/mL
- IL-12p70 cytokine concentration (primary human T-cells; [2]): 804.93 pg/mL
- IL-13 cytokine concentration (primary human T-cells; [2]): 97.39 pg/mL
- IL-17 cytokine concentration (primary human T-cells; [2]): 168.9 pg/mL
- IL-22 cytokine concentration (primary human T-cells; [2]): 21970.6 pg/mL
- TNF-α cytokine concentration (primary human T-cells; [2]): 188.29 pg/mL
- IFN-γ cytokine concentration (primary human T-cells; [3]): 0 pg/mL
- IL-1 cytokine concentration (primary human T-cells; [3]): 305.62 pg/mL
- IL-2 cytokine concentration (primary human T-cells; [3]): 985.16 pg/mL
- IL-4 cytokine concentration (primary human T-cells; [3]): 151.33 pg/mL
- IL-5 cytokine concentration (primary human T-cells; [3]): 310.87 pg/mL
- IL-6 cytokine concentration (primary human T-cells; [3]): 84.38 pg/mL
- IL-9 cytokine concentration (primary human T-cells; [3]): 116.55 pg/mL
- IL-10 cytokine concentration (primary human T-cells; [3]): 253.29 pg/mL
- IL-12p70 cytokine concentration (primary human T-cells; [3]): 226.23 pg/mL
- IL-13 cytokine concentration (primary human T-cells; [3]): 90.3 pg/mL
- IL-17 cytokine concentration (primary human T-cells; [3]): 238.4 pg/mL
- IL-22 cytokine concentration (primary human T-cells; [3]): 2242.06 pg/mL
- TNF-α cytokine concentration (primary human T-cells; [3]): 211.85 pg/mL
- IFN-γ cytokine concentration (primary human T-cells; [4]): 2726.77 pg/mL
- IL-1 cytokine concentration (primary human T-cells; [4]): 69689.2 pg/mL
- IL-2 cytokine concentration (primary human T-cells; [4]): 12000 pg/mL
- IL-4 cytokine concentration (primary human T-cells; [4]): 239.02 pg/mL
- IL-5 cytokine concentration (primary human T-cells; [4]): 325.76 pg/mL
- IL-6 cytokine concentration (primary human T-cells; [4]): 1533.99 pg/mL
- IL-9 cytokine concentration (primary human T-cells; [4]): 142.93 pg/mL
- IL-10 cytokine concentration (primary human T-cells; [4]): 3938.15 pg/mL
- IL-12p70 cytokine concentration (primary human T-cells; [4]): 1413.17 pg/mL
- IL-13 cytokine concentration (primary human T-cells; [4]): 760.63 pg/mL
- IL-17 cytokine concentration (primary human T-cells; [4]): 3476.92 pg/mL
- IL-22 cytokine concentration (primary human T-cells; [4]): 24128.2 pg/mL
- TNF-α cytokine concentration (primary human T-cells; [4]): 3600 pg/mL
- IL-1 cytokine concentration ([1]; HaCaT stimulated with IFN-γ): 265.46 pg/mL
- IL-2 cytokine concentration ([1]; HaCaT stimulated with IFN-γ): 96.34 pg/mL
- IL-4 cytokine concentration ([1]; HaCaT stimulated with IFN-γ): 71.76 pg/mL
- IL-5 cytokine concentration ([1]; HaCaT stimulated with IFN-γ): 109.73 pg/mL
- IL-6 cytokine concentration ([1]; HaCaT stimulated with IFN-γ): 641.89 pg/mL
- IL-9 cytokine concentration ([1]; HaCaT stimulated with IFN-γ): 104.08 pg/mL
- IL-10 cytokine concentration ([1]; HaCaT stimulated with IFN-γ): 129.2 pg/mL
- IL-13 cytokine concentration ([1]; HaCaT stimulated with IFN-γ): 61.18 pg/mL
- IL-17 cytokine concentration ([1]; HaCaT stimulated with IFN-γ): 629.16 pg/mL
- TNF-α cytokine concentration ([1]; HaCaT stimulated with IFN-γ): 79.97 pg/mL
- IL-12p70 cytokine concentration [1, 5]: 1904.09 pg/mL
- IL-22 cytokine concentration [1, 5]: 0 pg/mL
- IFN-γ cytokine concentration ([1]; HaCaT stimulated with PBS): 397.45 pg/mL
- IL-1 cytokine concentration ([1]; HaCaT stimulated with PBS): 251.25 pg/mL
- IL-2 cytokine concentration ([1]; HaCaT stimulated with PBS): 177.85 pg/mL
- IL-4 cytokine concentration ([1]; HaCaT stimulated with PBS): 90.8 pg/mL
- IL-5 cytokine concentration ([1]; HaCaT stimulated with PBS): 189.12 pg/mL
- IL-6 cytokine concentration ([1]; HaCaT stimulated with PBS): 75.53 pg/mL
- IL-9 cytokine concentration ([1]; HaCaT stimulated with PBS): 139.65 pg/mL
